system: Jurkat T cells; assay: Pro-apoptotic activity on Jurkat T cells (FITC-Annexin V / 7-AAD flow cytometry); format: cell-based; conditions: Homo sapiens, 72 hours, cells stained with FITC-Annexin V and 7-AAD among total cells, read-out: Cell Apoptosis Effect to Jurkat T Cell (% in 5 μM)
Experimental: In order to investigate the effects of the prepared compounds, the apoptosis-inducing effects of the compounds on human T cell acute lymphoblastic leukemia cell line, Jurkat T cells, were evaluated in the following manner.
Jurkat T cells cultured in RPMI medium containing 10% fetal bovine serum (FBS) were collected and stained with trypan blue (Sigma). […] Then, the cells were centrifuged at 1200 rpm at room temperature for 5 minutes and re-suspended in 10% FBS-containing RPMI medium at a concentration of 1.5×10^5 cells/mL. 200 μL of the cell suspension was dispensed into each well of a flat bottom 96-well plate (Costar). Then, the cells were treated with 10 μL of the diluted compounds in RPMI medium at final concentrations of […] or 5 μM, and incubated in a 5% CO2 incubator at 37° C. for 72 hours. In a vehicle control group, the cells were treated with 10 μL of RPMI medium containing 1% of dimetylsulfoxide (DMSO, Sigma). The incubated cells were harvested, put into 5-mL FACS tubes (BD Falcon), washed with 1 mL of phosphate buffered saline (PBS), and then re-suspended in 0.1 mL of binding buffer (10 mM Hepes-NaOH, pH 7.4, 140 mM NaCl, […] CaCl2). The suspended cells were stained with fluorescein isothiocyanate (FITC)-Annexin V (BD Biosciences) and 7-amino-actinomycin D (7-AAD, e-Biosciences) at room temperature for 15 minutes. The stained cells were suspended in 0.3 mL of binding buffer and analyzed by a flow cytometer. Apoptosis was determined by the ratio (%) of cells stained with FITC-Annexin V and 7-AAD among the total cells (see Tables 10 and 11).

Row | SMILES | cytotoxicity at 5 µM
1 | Cc1cc(Cl)cc(C)c1OCC(=O)N/N=C/c1cccc2[nH]ccc12 [Compound 155, (E)-N′-((1H-indol-4-yl)methylene)-2-(4-chloro-2,6-dimethylphenoxy)acetohydrazide] | 100%
2 | Cc1cc(Br)cc(C)c1OCC(=O)N/N=C/c1cccc2[nH]ccc12 [Compound 112, (E)-N′-((1H-indol-4-yl)methylene)-2-(4-bromo-2,6-dimethylphenoxy)acetohydrazide] | 100%
3 | O=C(COc1ccccc1C(F)(F)F)N/N=C/c1ccc2cc[nH]c2c1 [Compound 194] | 100%
4 | Cc1cc(C)c(OCC(=O)N(C)/N=C/c2cccc3c2ccn3C)c(C)c1 [Compound 164, (E)-2-(mesityloxy)-N-methyl-N′-((1-methyl-1H-indol-4-yl)methylene)acetohydrazide] | 100%
5 | CC(=O)OCN(/N=C/c1ccc2cc[nH]c2c1)C(=O)COc1c(C)cc(C)cc1C [Compound 252, (E)-(2-((1H-indol-6-yl)methylene)-1-(2-(mesityloxy)acetyl)hydrazinyl)methyl acetate] | 100%
6 | Cc1cc(C)c(OCC(=O)N/N=C/c2cccc3[nH]ccc23)c(-c2cccnc2)c1 [Compound 182, (E)-N′-((1H-indol-4-yl)methylene)-2-(2,4-dimethyl-6-(pyridin-3-yl)phenoxy)acetohydrazide] | 100%
7 | Cc1cc(C)c(SCC(=O)N/N=C/c2cccc3[nH]ccc23)c(C)c1 [Compound 147, (E)-N′-((1H-indol-4-yl)methylene)-2-(mesitylthio)acetohydrazide] | 100%
8 | Cc1cc(C)c(OCC(=O)N(CO)/N=C/c2cccc3[nH]ccc23)c(C)c1 [Compound 244, (E)-N′-((1H-indol-4-yl)methylene)-N-(hydroxymethyl)-2-(mesityloxy)acetohydrazide] | 100%
9 | Cc1ccccc1OCC(=O)N/N=C/c1ccc2[nH]ccc2c1 [Compound 014] | 100%
10 | Cc1cc(N)cc(C)c1OCC(=O)N/N=C/c1cccc2[nH]ccc12 [Compound 232, (E)-N′-((1H-indol-4-yl)methylene)-2-(4-amino-2,6-dimethylphenoxy)acetohydrazide] | 100%
11 | Cc1cc(C(C)(C)C)c(OCC(=O)N/N=C/c2cccc3[nH]ccc23)c(C(C)(C)C)c1 [Compound 127, (E)-N′-((1H-indol-4-yl)methylene)-2-(2,6-di-tert-butyl-4-methylphenoxy)acetohydrazide] | 100%
12 | Cc1cc(-c2cccnc2)cc(C)c1OCC(=O)N/N=C/c1cccc2[nH]ccc12 [Compound 137, (E)-N′-((1H-indol-4-yl)methylene)-2-(2,6-dimethyl-4-(pyridin-3-yl)phenoxy)acetohydrazide] | 100%
13 | Cc1ccnc(C)c1OCC(=O)N/N=C/c1cccc2[nH]ccc12 [Compound 190, (E)-N′-((1H-indol-4-yl)methylene)-2-(2,4-dimethylpyridin-3-yloxy)acetohydrazide] | 100%
14 | Cc1cc(Br)cc(C)c1OCC(=O)N/N=C/c1ccc2cc[nH]c2c1 [Compound 133, (E)-N′-((1H-indol-6-yl)methylene)-2-(4-bromo-2,6-dimethylphenoxy)acetohydrazide] | 100%
15 | Cc1cc(C)c(OCC(=O)N(CCN2CCOCC2)/N=C/c2ccc3cc[nH]c3c2)c(C)c1 [Compound 198] | 100%
16 | Cc1cc(C)c(SCC(=O)N/N=C/c2ccc3cc[nH]c3c2)c(C)c1 [Compound 159, (E)-N′-((1H-indol-6-yl)methylene)-2-(mesitylthio)acetohydrazide] | 100%
17 | Cc1cc(C#N)cc(C)c1OCC(=O)N/N=C/c1ccc2cc[nH]c2c1 [Compound 237, (E)-N′-((1H-indol-6-yl)methylene)-2-(4-cyano-2,6-dimethylphenoxy)acetohydrazide] | 100%
18 | Cc1ccccc1OCC(=O)N/N=C/c1cccc2[nH]ccc12 [Compound 013, (E)-N′-((1H-indol-4-yl)methylene)-2-(o-tosyloxy)acetohydrazide] | 100%
19 | Cc1cc(C)c(OCC(=O)N(CCO)/N=C/c2ccc3cc[nH]c3c2)c(C)c1 [Compound 195, (E)-N′-((1H-indol-6-yl)methylene)-N-(2-hydroxyethyl)-2-(mesityloxy)acetohydrazide] | 100%
20 | Cc1cc(C)c(OCC(=O)N/N=C/c2ccc3[nH]ccc3c2)c(-c2cccnc2)c1 [Compound 184, (E)-N′-((1H-indol-5-yl)methylene)-2-(2,4-dimethyl-6-(pyridin-3-yl)phenoxy)acetohydrazide] | 100%
21 | Cc1cc(C)c(OCC(=O)N(CCO)/N=C/c2cccc3[nH]ccc23)c(C)c1 [Compound 177, (E)-N′-((1H-indol-4-yl)methylene)-N-(2-hydroxyethyl)-2-(mesityloxy)acetohydrazide] | 100%

same assay, conditions: Homo sapiens, 72 hours, cells stained with FITC-Annexin V and 7-AAD among total cells, read-out: Jurkat T Cell Apoptosis (% in 5 μM)

Row | SMILES | cytotoxicity at 5 µM
22 | O=C(COc1cccnc1-c1ccsc1)N/N=C/c1ccc2cc[nH]c2c1 [Compound 343, (E)-N′-((1H-indol-6-yl)methylene)-2-((2-(thiophen-3-yl)pyridin-3-yl)oxy)acetohydrazide] | 100%
23 | Cc1cc(F)ccc1OCC(=O)N/N=C/c1ccc2cc[nH]c2c1 [Compound 291, (E)-N′-((1H-indol-6-yl)methylene)-2-(4-fluoro-2-methylphenoxy)acetohydrazide] | 100%
24 | Cc1cc(-c2ccoc2)cc(C)c1OCC(=O)N/N=C/c1cccc2[nH]ccc12 [Compound 336, (E)-N′-((1H-indol-4-yl)methylene)-2-(4-(furan-3-yl)-2,6-dimethylphenoxy)acetohydrazide] | 100%
25 | O=C(COc1cccc(-c2cccnc2)c1)N/N=C/c1ccc2cc[nH]c2c1 [Compound 359] | 80%
26 | Cc1ccccc1OCC(=O)N/N=C/c1ccc2cc[nH]c2c1 [Compound 279] | 100%
27 | COc1ccc(OCC(=O)N/N=C/c2ccc3cc[nH]c3c2)c(C(C)(C)C)c1 [Compound 303] | 100%
28 | O=C(COc1cccnc1-c1ccoc1)N/N=C/c1ccc2cc[nH]c2c1 [Compound 310, (E)-N′-((1H-indol-6-yl)methylene)-2-(2-(furan-3-yl)pyridin-3-yloxy)acetohydrazide] | 100%
29 | Cc1cccc(-c2ccoc2)c1OCC(=O)N/N=C/c1ccc2cc[nH]c2c1 [Compound 313, (E)-N′-((1H-indol-6-yl)methylene)-2-(2-(furan-3-yl)-6-methylphenoxy)acetohydrazide] | 100%
30 | Cc1cc(C)c(OCC(=O)N/N=C/c2cccc3[nH]ccc23)c(-c2ccco2)c1 [Compound 317, (E)-N′-((1H-indol-4-yl)methylene)-2-(2-(furan-2-yl)-4,6-dimethylphenoxy)acetohydrazide] | 100%
31 | Cc1ncccc1OCC(=O)N(CO)/N=C/c1cccc2[nH]ccc12 [Compound 289] | 100%
32 | Cc1cc(C)c(OCC(=O)N/N=C/c2ccc3cc[nH]c3c2)c(C2CCCO2)c1 (stereo not drawn) [Compound 332, (E)-N′-((1H-indol-6-yl)methylene)-2-(2,4-dimethyl-6-(tetrahydrofuran-2-yl)phenoxy)acetohydrazide] | 100%
33 | Cc1cc(C)c(OCC(=O)N/N=C/c2cccc3[nH]ccc23)c(-c2cccs2)c1 [Compound 344, (E)-N′-((1H-indol-4-yl)methylene)-2-(2,4-dimethyl-6-(thiophen-2-yl)phenoxy)acetohydrazide] | 100%
34 | Cc1cc(C2CCOC2)cc(C)c1OCC(=O)N/N=C/c1cccc2[nH]ccc12 (stereo not drawn) [Compound 337, (E)-N′-((1H-indol-4-yl)methylene)-2-(2,6-dimethyl-4-(tetrahydrofuran-3-yl)phenoxy)acetohydrazide] | 100%
35 | Cc1cc(C)c(OCC(=O)N(C)/N=C/c2ccc3ccn(C)c3c2)c(C2CCOC2)c1 (stereo not drawn) [Compound 375, (E)-2-(2,4-dimethyl-6-(tetrahydrofuran-3-yl)phenoxy)-N-methyl-N′-((1-methyl-1H-indol-6-yl)methylene)acetohydrazide] | 100%
36 | O=C(COc1cccnc1-c1ccoc1)N/N=C/c1cccc2[nH]ccc12 [Compound 319, (E)-N′-((1H-indol-4-yl)methylene)-2-((2-(furan-3-yl)pyridin-3-yl)oxy)acetohydrazide] | 100%
37 | Cc1cc(OCC(=O)N/N=C/c2cccc3[nH]ccc23)cc(C)n1 [Compound 286, (E)-N′-((1H-indol-4-yl)methylene)-2-(2,6-dimethylpyridin-4-yloxy)acetohydrazide] | 100%
38 | Cc1cccc(C2CCOC2)c1OCC(=O)N/N=C/c1cccc2[nH]ccc12 (stereo not drawn) [Compound 312, (E)-N′-((1H-indol-4-yl)methylene)-2-(2-methyl-6-(tetrahydrofuran-3-yl)phenoxy)acetohydrazide] | 100%
39 | Cc1cc(F)cc(C2CCOC2)c1OCC(=O)N/N=C/c1ccc2cc[nH]c2c1 (stereo not drawn) [Compound 378, (E)-N′-((1H-indol-6-yl)methylene)-2-(4-fluoro-2-methyl-6-(tetrahydrofuran-3-yl)phenoxy)acetohydrazide] | 100%
